According to PubChem BioAssay (NCI):
Several values for one entry are separate records, joined by “and”; a condition that tells them apart may be missing. Equal entries are not always repeated.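 Assay format: 96-well plates, 48-hour exposure. At the GI50, growth is halved. TGI: concentration producing complete growth inhibition.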

Legend:
Experiment in all cases: DTP human tumour cell line panel, 48 h
[1] = system: SK-OV-3 ovarian
[2] = system: HCT-116 colon
[3] = system: MOLT-4 leukemia
[4] = system: UO-31 renal
[5] = system: 786-0 renal
[6] = system: U251 CNS
[7] = system: CCRF-CEM leukemia
[8] = system: OVCAR-8 ovarian
[9] = system: MDA-MB-231 breast
[10] = system: SNB-19 CNS

Structure (SMILES)	GI50 [1]	TGI [1]	GI50 [2]	TGI [2]	GI50 [3]	TGI [3]	GI50 [4]	TGI [4]	GI50 [5]	TGI [5]	GI50 [6]	TGI [6]	GI50 [7]	TGI [7]	GI50 [8]	TGI [8]	GI50 [9]	TGI [9]	GI50 [10]	TGI [10]
O=C(Nc1cccc(Cl)c1)Nc1ncc(CCNc2ncnc3ccsc23)s1	9.12 µM and 4.86 µM	24.1 µM and > 10 µM	1.6 µM and 2.35 µM	16.1 µM and > 10 µM	2.85 µM and 1.73 µM	> 27.8 µM and 4.99 µM	6.01 µM and 3.22 µM	28.7 µM and > 10 µM	7.55 µM and 6.41 µM	41.1 µM and > 10 µM	4.68 µM and 2.16 µM	> 45.7 µM	< 0.01 µM and 0.00391 µM	> 100 µM	1.68 µM and 1.22 µM	9.64 µM and 5.31 µM	3.38 µM and 2.67 µM	17.4 µM and > 10 µM	11.2 µM and > 10 µM	26.9 µM and > 10 µM
O=C(CCl)c1ccc([N+](=O)[O-])o1	14.9 µM	30.5 µM	0.519 µM	2.4 µM	1.15 µM		2.14 µM	6.7 µM	3.32 µM	10.9 µM	1.95 µM	4.37 µM	0.932 µM	2.51 µM	3.33 µM	18.8 µM	4.9 µM	13.7 µM	10.6 µM	23.4 µM
CCc1c(C)[nH]c(/C=C2\N=C(c3ccc[nH]3)C=C2OC)c1C	2.95 µM	13.5 µM	< 0.0462 µM		< 0.0394 µM	4.18 µM	0.176 µM	0.591 µM	0.177 µM	0.675 µM	0.275 µM	7.33 µM	< 0.0257 µM	2.11 µM	0.232 µM	> 24.1 µM	0.128 µM	3.16 µM	1.96 µM	15.7 µM
O=C(O)CSSCC(=O)O		> 100 µM		> 100 µM		> 100 µM		> 100 µM		> 100 µM		> 100 µM		> 100 µM		> 100 µM		> 100 µM		> 100 µM
COc1cccc(C2=C(c3cn(C)c4ccccc34)C(=O)NC2=O)c1	12.7 µM	> 25 µM	7.26 µM	> 25 µM	8.54 µM	> 25 µM	10.8 µM	> 25 µM	13.4 µM	> 25 µM	10.9 µM	> 25 µM	9.01 µM	> 25 µM	8.25 µM	> 25 µM	17.4 µM	> 25 µM	> 25 µM	> 25 µM
CC12CCC=CC1CCC1C2CCC2(C)C(c3ccc(=O)oc3)CCC12O (stereo not drawn)	0.218 µM	0.641 µM	0.0396 µM	0.389 µM	0.0282 µM	0.0967 µM	0.0647 µM	0.189 µM	0.0618 µM	0.357 µM	0.131 µM	0.419 µM	0.0364 µM	0.544 µM	0.0999 µM	0.501 µM	0.365 µM	2.57 µM	0.215 µM	1.23 µM
O=C1C(Cl)=C(N/N=c2/[nH][nH]/c(=N/NC3=C(Cl)C(=O)c4ccccc4C3=O)c3ccccc23)C(=O)c2ccccc21	15.3 µM	29.5 µM	14.3 µM	32.3 µM	4.9 µM	34.6 µM	12.3 µM	25.9 µM	17.4 µM	32.3 µM	15.4 µM	29.2 µM	10 µM	56.7 µM	15.4 µM	35 µM	12 µM	28.2 µM	14.6 µM	31.1 µM
O=C(O)[C@@H]1C2CC([C@@H]1C(=O)O)[C@H](N1C(=O)CCC1=O)[C@@H]2Br (stereo partly drawn)		> 100 µM		> 100 µM		> 100 µM		> 100 µM		> 100 µM		> 100 µM		> 100 µM		> 100 µM		> 100 µM		> 100 µM
CCN(CC)c1ccc(/C=C/c2cc(C)c3ccccc3n2)cc1	3.41 µM	17.8 µM	4.06 µM	16.4 µM	4.07 µM	43.1 µM	3.18 µM	15 µM	4.51 µM	16.2 µM	2.36 µM	21.1 µM	2.85 µM	87.8 µM	4.64 µM	55.8 µM	3.54 µM	13.3 µM	5.92 µM	> 100 µM
CCc1ccc(NC(=O)Nc2c[nH]c3ccccc23)cc1	19.7 µM	> 73.2 µM	32.9 µM	> 56 µM	1.85 µM	> 100 µM	1.62 µM	> 58 µM	8.55 µM	> 81.9 µM	31.5 µM	> 51.7 µM	0.358 µM	> 100 µM	13.9 µM	> 47.5 µM	3.2 µM	> 36.9 µM	22.7 µM	> 58.3 µM
